Laboratory results taken from US20080032945A1, “2'-MODIFIED OLIGONUCLEOTIDES” (Isis Pharmaceuticals, Inc., priority 1992, published 2008).
“And” between values parts separate entries of the source, which are not always exact repeats. Identical values can stand only once. “Also recorded” adds a separate entry of the source. Blank lines part the entries; values can stand above or below the substance they belong to. d = 2'-deoxy (DNA); m = 2'-O-methyl; f = 2'-fluoro

What was measured:
[1] = system: c-raf mRNA; experiment: Northern blot analysis of inhibition of c-raf mRNA expression in T24 cells; format: cell-based, human
From the text: Chimeric oligonucleotides having SEQ ID NO:7 were designed using the Genbank c-raf sequence HUMRAFR (Genbank listing x03484), synthesized and tested for inhibition of c-raf mRNA expression in T24 bladder carcinoma cells using a Northern blot assay. These chimeric oligonucleotides have central “gap” regions of 6, 8 or 10 deoxynucleotides flanked by two regions of 2′-O-methyl modified nucleotides, and are shown in Table 10. Backbones were uniformly phosphorothioate. […] These oligonucleotides are preferred.
The human urinary bladder cancer cell line T24 was obtained from the American Type Culture Collection (Rockville, Md.). Cells were grown in McCoy's 5A medium with L-glutamine (GIBCO-BRL, Gaithersburg, Md.), supplemented with 10% heat-inactivated fetal calf serum and 50 U/ml each of penicillin and streptomycin. Cells were seeded on 100 mm plates. When they reached 70% confluency, they were treated with oligonucleotide. Plates were washed with 10 ml prewarmed PBS and 5 ml of OptiMEM reduced-serum medium containing 2.5 μl DOTMA. Oligonucleotide with lipofectin was then added to the desired concentration. After 4 hours of treatment, the medium was replaced with McCoy's medium. Cells were harvested 24 to 72 hours after oligonucleotide treatment and RNA was isolated using a standard CsCl purification method. [Kingston in Current Protocols in Molecular Biology, F. M. Ausubel, R. Brent, R. E. Kingston, D. D. Moore, J. A. Smith, J. G. Seidman and K. Strahl, Eds., John Wiley and Sons, New York.] Total RNA was isolated by centrifugation of cell lysates over a CsCl cushion. RNA samples were electrophoresed through 1.2% agarose-formaldehyde gels and transferred to hybridization membranes by capillary diffusion over a 12-14 hour period. The RNA was cross-linked to the membrane by exposure to UV light in a Stratalinker (Stratagene, La Jolla, Calif.) and hybridized to random-primed ^32P-labeled c-raf cDNA probe (obtained from ATCC) or G3PDH probe as a control. RNA was quantitated using a Phosphorimager (Molecular Dynamics, Sunnyvale, Calif.).

[2] = system: ras mRNA; experiment: Northern blot analysis of ras expression in T24 cells; format: cell-based, human; conditions: for ras expression / ras mRNA levels: result in words
Procedure: The human urinary bladder cancer cell line T24 was obtained from the American Type Culture Collection (Rockville Md.). Cells were grown in McCoy's 5A medium with L-glutamine (GIBCO-BRL, Gaithersburg, Md.), supplemented with 10% heat-inactivated fetal calf serum and 50 U/ml each of penicillin and streptomycin. Cells were seeded on 100 mm plates. When they reached 70% confluency, they were treated with oligonucleotide. Plates were washed with 10 ml prewarmed PBS and 5 ml of OptiMEM (GIBCO) reduced-serum medium containing 2.5 μl DOTMA. Oligonucleotide was then added to the desired concentration. After 4 hours of treatment, the medium was replaced with McCoy's medium. Cells were harvested 48 hours after oligonucleotide treatment and RNA was isolated using a standard CsCl purification method. [Kingston in Current Protocols in Molecular Biology, F. M. Ausubel, R. Brent, R. E. Kingston, D. D. Moore, J. A. Smith, J. G. Seidman and K. Strahl, Eds., John Wiley and Sons, New York.] The human epithelioid carcinoma cell line HeLa 229 was obtained from the American Type Culture Collection (Bethesda, Md.). HeLa cells were maintained as monolayers on 6-well plates in Dulbecco's Modified Eagle's medium (DMEM) supplemented with 10% fetal bovine serum and 100 U/ml penicillin. Treatment with oligonucleotide and isolation of RNA were essentially as described above for T24 cells.
Northern hybridization: 10 μg of each RNA was electrophoresed on a 1.2% agarose/formaldehyde gel and transferred overnight to GeneBind 45 nylon membrane (Pharmacia LKB, Piscataway, N.J.) using standard methods. [Kingston in Current Protocols in Molecular Biology, F. M. Ausubel, R. Brent, R. E. Kingston, D. D. Moore, J. A. Smith, J. G. Seidman and K. Strahl, Eds., John Wiley and Sons, New York.] RNA was UV-crosslinked to the membrane. Double-stranded ^32P-labeled probes were synthesized using the Prime a Gene labeling kit (Promega, Madison Wis.). The ras probe was a SalI-NheI fragment of a cDNA clone of the activated (mutant) H-ras mRNA having a GGC-to-GTC mutation at codon-12. The control probe was G3PDH. Blots were prehybridized for 15 minutes at 68° C. with the QuickHyb hybridization solution (Stratagene, La Jolla, Calif.). The heat-denatured radioactive probe (2.5×10^6 counts/2 ml hybridization solution) mixed with 100 μl of 10 mg/ml salmon sperm DNA was added and the membrane was hybridized for 1 hour at 68° C. The blots were washed twice for 15 minutes at room temperature in 2×SSC/0.1% SDS and once for 30 minutes at 60° C. with 0.1×SSC/0.1% SDS. Blots were autoradiographed and the intensity of signal was quantitated using an ImageQuant PhosphorImager (Molecular Dynamics, Sunnyvale, Calif.). Northern blots were first hybridized with the ras probe, then stripped by boiling for 15 minutes in 0.1×SSC/0.1% SDS and rehybridized with the control G3PDH probe to check for correct sample loading.

[3] = system: ras mRNA (wild-type H-ras codon-12); experiment: Northern blot analysis of ras expression in HeLa cells; format: cell-based, human; conditions: result in words
Procedure: Oligonucleotides 2570 and 2503 were also tested to determine their effects on ras expression in HeLa cells, which have a wild-type (i.e., not activated) H-ras codon-12.
The human urinary bladder cancer cell line T24 was obtained from the American Type Culture Collection (Rockville Md.). Cells were grown in McCoy's 5A medium with L-glutamine (GIBCO-BRL, Gaithersburg, Md.), supplemented with 10% heat-inactivated fetal calf serum and 50 U/ml each of penicillin and streptomycin. Cells were seeded on 100 mm plates. When they reached 70% confluency, they were treated with oligonucleotide. Plates were washed with 10 ml prewarmed PBS and 5 ml of OptiMEM (GIBCO) reduced-serum medium containing 2.5 μl DOTMA. Oligonucleotide was then added to the desired concentration. After 4 hours of treatment, the medium was replaced with McCoy's medium. Cells were harvested 48 hours after oligonucleotide treatment and RNA was isolated using a standard CsCl purification method. […]
Northern hybridization: 10 μg of each RNA was electrophoresed on a 1.2% agarose/formaldehyde gel and transferred overnight to GeneBind 45 nylon membrane (Pharmacia LKB, Piscataway, N.J.) using standard methods. […] Blots were autoradiographed and the intensity of signal was quantitated using an ImageQuant PhosphorImager (Molecular Dynamics, Sunnyvale, Calif.). […]

[4] = system: ras-luciferase (codon-12 point mutation of activated H-ras); experiment: ras-luciferase reporter gene system; format: cell-based, human; conditions: for inhibition of ras-luciferase activity: cells expressing the mutant form of ras-luciferase, dose response, FIGS. 1 and 2
[5] = system: 25mer oligoribonucleotide complement; experiment: Melting curves with 25mer oligoribonucleotide complement; format: binding; conditions: 17mer hybridized with 25mer oligoribonucleotide complement
From the text: Other sugar modifications: The effects of other 2′ sugar modifications besides 2′-O-methyl on antisense activity in chimeric oligonucleotides have been examined. These modifications are listed in Table 4, along with the Tm values obtained when 17mer oligonucleotides having 2′-modified nucleotides flanking a 7-base deoxy gap were hybridized with a 25mer oligoribonucleotide complement as described in Example 25. […] As alkyl length increased, Tm decreased.
Absorbance vs. temperature curves were measured at 260 nm using a Gilford 260 spectrophotometer interfaced to an IBM PC computer and a Gilford Response II spectrophotometer. The buffer contained 100 mM Na^+, 10 mM phosphate and 0.1 mM EDTA, pH 7. Oligonucleotide concentration was 4 μM each strand determined from the absorbance at 85° C. and extinction coefficients calculated according to Puglisi and Tinoco [Methods in Enzymol., 180, 304 (1989). Tm values, free energies of duplex formation and association constants were obtained from fits of data to a two state model with linear sloping baselines. [Petersheim and Turner, Biochemistry, 22, 256 (1983). Reported parameters are averages of at least three experiments. For some oligonucleotides, free energies of duplex formation were also obtained from plots of Tm^−1 vs log10 (concentration). Borer et al., J. Mol. Biol., 86, 843 (1974).

[6] = system: H-ras; experiment: ras transactivation reporter gene assay; format: cell-based; conditions: result in words
Procedure: These 2′ modified oligonucleotides were tested for antisense activity against H-ras using the transactivation reporter gene assay described in Example 26. […] A 2′-fluoro chimeric oligonucleotide with a centered 5-deoxy gap was also active.
The expression plasmid pSV2-oli, containing an activated (codon 12, GGC-GTC) H-ras cDNA insert under control of the constitutive SV40 promoter, was a gift from Dr. Bruno Tocque (Rhone-Poulenc Sante, Vitry, France). This plasmid was used as a template to construct, by PCR, a H-ras expression plasmid under regulation of the steroid-inducible mouse mammary tumor virus (MMTV) promoter. To obtain H-ras coding sequences, the 570 bp coding region of the H-ras gene was amplified by PCR. The PCR primers were designed with unique restriction endonuclease sites in their 5′-regions to facilitate cloning. The PCR product containing the coding region of the H-ras codon 12 mutant oncogene was gel purified, digested, and gel purified once again prior to cloning. This construction was completed by cloning the insert into the expression plasmid pMAMneo (Clontech Laboratories, CA).
The ras-responsive reporter gene pRDO53 was used to detect ras expression. [Owen et al., Proc. Natl. Acad. Sci. U.S.A., 87, 3866 (1990).

[7] = system: T24 cancer cell proliferation; experiment: Antisense oligonucleotide inhibition of proliferation of cancer cells; format: cell-based, human; conditions: for IC50: T24 cell proliferation, dose-response; for inhibited cell proliferation: T24 cells
Procedure: Antisense oligonucleotide inhibition of proliferation of cancer cells: Three 17mer oligonucleotides having the same sequence (SEQ ID NO:1), complementary to the codon 12 region of activated ras, were tested for effects on T24 cancer cell proliferation as described in Example 28. 3985 is a full phosphorothioate oligonucleotide having a 7-deoxy gap flanked by 2′-O-methyl nucleotides, and 4690 is a full phosphorothioate oligonucleotide having a 7-deoxy gap flanked by 2′-F nucleotides (C^FC^FA^F C^FA^FCd CdGdAd CdGdGd C^FG^FC^F C^FC^F, SEQ ID NO:1, nucleotides identified with an “^F” contain a […] substituent group and the remainder of the nucleotides identified with a “d” are 2′-deoxy-erythro-pentofuranosyl nucleotides).
Cells were cultured and treated with oligonucleotide essentially as described in Example 27. Cells were seeded on 60 mm plates and were treated with oligonucleotide in the presence of DOTMA when they reached 70% confluency. Time course experiment: On day 1, cells were treated with a single dose of oligonucleotide at a final concentration of 100 nM. The growth medium was changed once on day 3 and cells were counted every day for 5 days, using a counting chamber. Dose-response experiment: Various concentrations of oligonucleotide (10, 25, 50, 100 or 250 nM) were added to the cells and cells were harvested and counted 3 days later. Oligonucleotides 2570, 3985 and 4690 were tested for effects on T24 cancer cell proliferation.

Substance: CTCGCCCGCTCCTCCTCCCC (all phosphorothioate, sugars by position and methylation of C not given here; further chemistry not fully specified) [ISIS 7849, chimeric 2′-O-methyl P═S c-raf oligonucleotide, 5′UTR]
inhibition of c-raf mRNA expression [1]: > 70%

Substance: TCCGTCATCGCTCCTCAGGG [Compound 2503, reference compound]
inhibition of ras expression / decrease of ras mRNA [2]: 71%
ras expression / ras mRNA levels [2]: inhibited ras expression in T24 cells
ras expression [3]: inhibited ras expression in HeLa cells

Substance: CdCdAd CdAdCd CdGdAd CdGdGd CdGdCd CdCd [Oligonucleotide 2570, reference compound]
selectivity toward the mutant form of ras-luciferase as compared to the normal form [4]: threefold
inhibition of ras-luciferase activity [4]: dose-dependent inhibition
Tm [5]: 64.2 °C
ras expression / ras mRNA levels [2]: inhibited ras expression in T24 cells; also recorded: decreased ras mRNA levels in T24 cells
ras expression [3]: did not inhibit ras expression in HeLa cells

Substance: TTCTCCTCCTCCCCTGGCAG (sugars from the 5' end m12 d8, all phosphorothioate, T or U not given here) [ISIS 7854, chimeric 2′-O-methyl P═S c-raf oligonucleotide, 3′UTR]
inhibition of c-raf mRNA expression [1]: > 70%

IC50 [7]: 0.044 µM
Substance: C^FC^FA^F C^FA^FCd CdGdAd CdGdGd C^FG^FC^F C^FC^F [Oligonucleotide 4690]
Tm [5]: 76.9 °C
antisense activity against H-ras (ras expression) [6]: most active
inhibition of ras expression / decrease of ras mRNA [2]: 82%
inhibited cell proliferation [7]: 93%

Substance: TTCTCGCCCGCTCCTCCTCC (all phosphorothioate, sugars by position and methylation of C not given here; further chemistry not fully specified) [ISIS 7856, chimeric 2′-O-methyl P═S c-raf oligonucleotide, 5′UTR]
inhibition of c-raf mRNA expression [1]: > 70%

Substance: C^MC^MA^M C^MA^MCd CdGdAd CdGdGd C^MG^MC^M C^MC^M [Oligonucleotide 3985]
inhibition of ras-luciferase activity [4]: greatest inhibition
Tm [5]: 74.7 °C
inhibition of ras expression / decrease of ras mRNA [2]: 95% and 81%
IC50 [7]: 0.061 µM
inhibited cell proliferation [7]: 82%

Substance: Oligonucleotide 4689: SEQ ID NO:1 chimeric oligonucleotide, 2′-fluoro-modified nucleotides flanking a 5-deoxy gap (CCACACCGACGGCGCCC; sugars from the 5' end f6 d5 f6, backbone and methylation of C not given here)
antisense activity against H-ras (ras expression) [6]: also active
inhibition of ras expression / decrease of ras mRNA [2]: 63%

Substance: TCCCGCCTGTGACATGCATT (all phosphorothioate, sugars by position and methylation of C not given here; further chemistry not fully specified) [ISIS 6717, chimeric 2′-O-methyl P═S c-raf oligonucleotide, 8-deoxy gap]
inhibition of c-raf mRNA expression [1]: greater than 90%
